Measurements published in US8168665B2, “Substituted 2-phenyl-benzimidazoles and their use as pharmaceuticals” (Sanofi-Aventis, priority 2006, dated 2012).

tested on: eNOS promoter; test: Activation of eNOS transcription (eNOS promoter-luciferase reporter, human endothelial cell line); type: cell-based; settings: human endothelial cell line stably transfected with eNOS promoter-luciferase construct, 18 h incubation, determined graphically; read-out: EC50 values of transcription induction ratios (TIR)
Method: A) Activation of eNOS Transcription
Activation of eNOS transcription was measured as described in detail by Li et al., “Activation of protein kinase C alpha and/or epsilon enhances transcription of the human endothelial nitric oxide synthase gene”, Mol. Pharmacol. 53 (1998) 630. Briefly, a 3.5 kB long fragment 5′ of the starting codon of the eNOS gene was cloned, sequenced and cloned in firefly luciferase expression plasmids to monitor activation of the eNOS promoter by reporter gene activity. A human endothelial cell line stable transfected and expressing this promoter-reporter construct was used for compound testing. Cells were incubated for 18 h with the compounds.
All compounds were dissolved in sterile dimethyl sulfoxide (DMSO). A final concentration of 0.5% DMSO in complete medium was allowed. Induction of reporter gene expression in these cells was measured using a standard luciferase assay system (Promega, Cat. No. E150) according to the manufacturer's instructions. Luciferase induction in cells incubated with compounds were compared to those incubated with solvent alone. The ratio of both activities (transcription induction ratio, TIR) was plotted as a function of compound concentration. Typically, TIR values started at low concentrations at a ratio of 1, indicating no compound effect, and extended up to a maximum TIR value TIR(max) which indicates the increase of the eNOS transcription. EC50 values of transcription induction ratios as a function of compound concentration were determined graphically.

EC50, < 0.5 µM:
Cc1ccc(-c2nc3cc(/C(N)=N/O)ccc3[nH]2)cc1 [Example 4, N-Hydroxy-2-p-tolyl-1H-benzoimidazole-5-carboxamidine]
CCOC(=O)O/N=C(\N)c1ccc2[nH]c(-c3ccc(F)cc3)nc2c1 [Example 5, 2-(4-Fluoro-phenyl)-N-ethoxycarbonyl-oxy-1H-benzoimidazole-5-carboxamidine]
COC(=O)O/N=C(\N)c1ccc2[nH]c(-c3ccc(F)cc3)nc2c1 [Example 6, 2-(4-Fluoro-phenyl)-N-methoxycarbonyl-oxy-1H-benzoimidazole-5-carboxamidine]
CC(C)OC(=O)O/N=C(\N)c1ccc2[nH]c(-c3ccc(F)cc3)nc2c1 [Example 7, 2-(4-Fluoro-phenyl)-N-isopropyloxycarbonyl-oxy-1H-benzoimidazole-5-carboxamidine]
